Laboratory results published in patent US20260069588A1, “VEPDEGESTRANT FOR USE IN TREATING CANCER” (Arvinas Operation, Inc., priority 2022, published 2026).
Converted amounts (≈) assume the structure as drawn. Like-named read-outs stand apart in the source and are kept apart here. Marks after values point to notes of the source that are not given here.

Key:
ER [1] = assay: ER expression in paired tumor biopsies (FIH Part A); format: in vivo, human; details: 14 paired biopsies, doses up to 500 mg QD, WT or mutant ER
ER [2] = molecular target: T1, ER (Rattus norvegicus, UniProt P06211); assay: Uterine wet weight in juvenile rats (ER agonist activity); format: in vivo
T1 construct: uterine wet weight in juvenile rats; from tissue; host or cells: uterus of juvenile rats, in vivo

ERP = ERP (Homo sapiens, UniProt Q92731); assay: Secondary pharmacodynamics binding, ERP; details: in vitro
Ikaros = Ikaros (Homo sapiens, UniProt Q13422); assay: Cereblon neomorphic substrate degradation, Ikaros; format: cell-based; details: in vitro
Excerpt: (§1) These drugs bind to cereblon and promote the degradation of novel (neomorphic) substrates.

GSPT1 = GSPT1 (Homo sapiens, UniProt P15170); assay: Cereblon neomorphic substrate degradation, GSPT1; format: cell-based; details: in vitro
Excerpt: as §1

hERG channel = hERG channel (Homo sapiens, UniProt Q12809); assay: hERG channel inhibition; format: biochemical
Protocol: The pivotal nonclinical safety studies were conducted in the US in accordance with GLP regulations per the US 21 CFR Part 58. These include the cardiovascular safety pharmacology study in dogs, the pivotal 28-day and 3-month repeat-dose toxicology studies in rats and dogs, and an in vitro phototoxicity assay. The bacterial reverse mutation assay, in vitro micronucleus assay, and 2 in vitro hERG studies were conducted in the UK in accordance with the UK Good Laboratory Practice Monitoring Authority, MHRA: Good Laboratory Practice Regulations 1999, Statutory Instrument 1999 No. 3106 as amended by the Good Laboratory Practice (Codification Amendments Etc.) Regulations, 2004, Statutory Instrument 2004, No. 994; and the OECD GLP and OECD Principles on Good Laboratory Practice ENV/MC/CHEM (98) 17 (Revised in 1997, Issued January 1998).accordance with the OECD Principles of Good Laboratory Practice and as accepted by Regulatory Authorities throughout the European Union, United States of America (FDA), Japan (MHLW), and other countries that are signatories to the OECD Mutual Acceptance of Data Agreement.

[3] = 7-day oral dose range finding toxicity study in rats; format: in vivo; details: rat, up to 300 mg/kg/day, 7 days
Excerpt: Noteworthy findings were changes in the female reproductive organs, including in the ovaries (minimal to moderate increased size of tertiary follicles, retained corpora lutea, and minimal to moderate interstitial cell hypertrophy), uterus (atrophy) and vagina (mucosa atrophy).

[4] = Tablet performance in fed and fasted dogs; format: in vivo, dog; details: 50 mg tablet QD, fed vs fasted
Protocol: For 6 days, dogs received a single 50 mg tablet QD after pre-treatment with pentagastrin. Little accumulation was observed over the course of the study. In addition, exposure in chow-fed dogs was similar to that obtained for solution formulations administered at a similar dose. To reduce the pill burden, a 100 mg tablet was developed and when tested in dogs, similar exposure was observed when dogs were dosing with a 50 mg tablet.

[5] = Solubility in phosphate buffer; format: physicochemical; details: aqueous buffer; phosphate buffer at pH 7.4
reticulocytes = assay: Rat micronucleus test; format: in vivo; details: 400, 800, 1600 mg/kg/day, two days
[6] = test system: BALB/c 3T3 mouse fibroblasts; assay: In vitro 3T3 phototoxicity; format: cell-based
[7] = Clinical Pharmacology Study: single 200 mg dose PK, all 3 cohorts; details: human, in vivo, oral
Protocol: The geometric mean T1/2 following a single 200 mg dose was approximately 40 hours under fed condition.

[8] = human, in vivo
Protocol: Study Design: In the FIH Study: Part A is a Phase I monotherapy dose escalation, and Part B is a Phase 2 monotherapy expansion at 2 RP2D doses (200 mg QD, 500 mg QD).

ER [9] = molecular target: T2, ER (Homo sapiens, UniProt P03372); assay: Tumor ER levels in MCF7 xenograft; format: in vivo, mouse; design: from tissue; host or cells: MCF7/estradiol xenograft tumour in mice; details: all doses (3, 10, 30 mg/kg), study termination
T2 sequence (P03372 1-595): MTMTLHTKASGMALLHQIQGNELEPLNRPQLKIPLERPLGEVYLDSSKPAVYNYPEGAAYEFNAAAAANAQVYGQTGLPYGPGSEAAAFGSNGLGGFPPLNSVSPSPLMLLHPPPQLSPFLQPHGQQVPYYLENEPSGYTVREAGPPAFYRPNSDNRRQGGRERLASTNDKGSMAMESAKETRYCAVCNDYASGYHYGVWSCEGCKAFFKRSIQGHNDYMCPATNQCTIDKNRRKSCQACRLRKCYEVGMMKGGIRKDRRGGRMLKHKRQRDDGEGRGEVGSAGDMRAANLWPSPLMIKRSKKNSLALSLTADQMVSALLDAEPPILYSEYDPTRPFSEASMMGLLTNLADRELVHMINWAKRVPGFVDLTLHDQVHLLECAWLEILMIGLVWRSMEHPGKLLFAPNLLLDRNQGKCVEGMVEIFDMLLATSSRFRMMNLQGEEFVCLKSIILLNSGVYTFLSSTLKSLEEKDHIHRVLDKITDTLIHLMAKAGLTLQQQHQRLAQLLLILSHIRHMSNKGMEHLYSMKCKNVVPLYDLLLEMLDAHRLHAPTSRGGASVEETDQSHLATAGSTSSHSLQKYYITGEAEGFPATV
Protocol: The 30 mg/kg dose was associated with a mean AUC0-24 of 5,717 ng·h/mL. The tumor ER levels were reduced by ≥94% at all doses compared to mice administered vehicle only (FIG. 3B).
The 30 mg/kg dose was associated with a mean AUC0-24 of 5,717 ng·h/mL.

hERG channel, sequence (Q12809 whole entry): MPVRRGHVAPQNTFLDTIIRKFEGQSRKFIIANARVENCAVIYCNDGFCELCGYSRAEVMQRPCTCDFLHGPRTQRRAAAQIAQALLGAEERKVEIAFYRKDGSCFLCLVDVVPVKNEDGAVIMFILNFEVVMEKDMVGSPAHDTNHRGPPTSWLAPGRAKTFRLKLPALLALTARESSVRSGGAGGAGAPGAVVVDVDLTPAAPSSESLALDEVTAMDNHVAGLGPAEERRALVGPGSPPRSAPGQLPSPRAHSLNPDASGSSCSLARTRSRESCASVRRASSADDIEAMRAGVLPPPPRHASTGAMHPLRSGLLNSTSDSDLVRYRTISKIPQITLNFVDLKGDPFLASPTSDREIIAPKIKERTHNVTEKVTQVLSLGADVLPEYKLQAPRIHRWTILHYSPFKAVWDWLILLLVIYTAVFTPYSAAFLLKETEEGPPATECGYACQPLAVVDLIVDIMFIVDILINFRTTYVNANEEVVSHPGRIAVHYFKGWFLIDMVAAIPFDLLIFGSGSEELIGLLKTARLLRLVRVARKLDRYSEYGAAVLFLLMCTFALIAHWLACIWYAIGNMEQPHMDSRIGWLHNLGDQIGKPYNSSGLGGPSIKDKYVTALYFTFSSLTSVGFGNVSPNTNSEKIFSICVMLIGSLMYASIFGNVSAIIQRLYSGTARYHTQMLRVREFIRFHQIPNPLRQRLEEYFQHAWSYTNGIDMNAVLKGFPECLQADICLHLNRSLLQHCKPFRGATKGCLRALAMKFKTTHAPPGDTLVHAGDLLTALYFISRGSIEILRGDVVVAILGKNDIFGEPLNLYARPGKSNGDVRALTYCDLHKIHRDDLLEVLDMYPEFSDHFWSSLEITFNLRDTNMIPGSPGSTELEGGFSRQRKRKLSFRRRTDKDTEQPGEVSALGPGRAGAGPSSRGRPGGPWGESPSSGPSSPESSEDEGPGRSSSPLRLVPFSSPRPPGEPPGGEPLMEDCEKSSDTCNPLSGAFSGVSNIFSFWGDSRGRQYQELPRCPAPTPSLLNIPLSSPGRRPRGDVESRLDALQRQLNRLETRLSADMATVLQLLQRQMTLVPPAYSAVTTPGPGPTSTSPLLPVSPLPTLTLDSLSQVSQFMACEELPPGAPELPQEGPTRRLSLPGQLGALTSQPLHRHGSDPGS
ERP, sequence (Q92731 whole entry): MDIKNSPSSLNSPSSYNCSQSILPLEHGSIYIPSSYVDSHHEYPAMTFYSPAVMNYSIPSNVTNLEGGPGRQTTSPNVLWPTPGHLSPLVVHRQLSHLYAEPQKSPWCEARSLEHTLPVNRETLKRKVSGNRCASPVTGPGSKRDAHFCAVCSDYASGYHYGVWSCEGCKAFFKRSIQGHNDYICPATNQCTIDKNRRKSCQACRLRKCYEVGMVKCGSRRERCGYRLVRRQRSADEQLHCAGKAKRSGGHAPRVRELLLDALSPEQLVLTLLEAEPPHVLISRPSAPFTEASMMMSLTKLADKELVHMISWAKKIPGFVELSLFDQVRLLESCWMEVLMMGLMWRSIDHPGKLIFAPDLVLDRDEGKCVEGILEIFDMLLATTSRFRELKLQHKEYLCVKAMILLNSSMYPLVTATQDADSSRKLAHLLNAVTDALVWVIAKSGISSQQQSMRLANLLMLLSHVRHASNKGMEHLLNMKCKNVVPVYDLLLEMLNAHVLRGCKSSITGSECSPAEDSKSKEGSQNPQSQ
Ikaros, sequence (Q96SW2 whole entry partner, species assumed): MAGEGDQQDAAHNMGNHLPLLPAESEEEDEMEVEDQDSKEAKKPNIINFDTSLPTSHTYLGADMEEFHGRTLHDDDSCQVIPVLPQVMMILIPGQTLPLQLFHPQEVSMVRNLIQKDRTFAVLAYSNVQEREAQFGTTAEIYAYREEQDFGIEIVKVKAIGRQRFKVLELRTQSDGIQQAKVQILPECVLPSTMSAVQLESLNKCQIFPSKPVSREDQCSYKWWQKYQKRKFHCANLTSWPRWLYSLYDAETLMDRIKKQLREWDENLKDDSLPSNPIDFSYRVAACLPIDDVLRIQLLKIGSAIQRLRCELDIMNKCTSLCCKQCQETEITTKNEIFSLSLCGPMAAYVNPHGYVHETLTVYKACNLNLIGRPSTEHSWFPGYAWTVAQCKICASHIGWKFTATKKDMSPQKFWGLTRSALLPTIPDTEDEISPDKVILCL
Ikaros, sequence (Q16531 whole entry partner, species assumed): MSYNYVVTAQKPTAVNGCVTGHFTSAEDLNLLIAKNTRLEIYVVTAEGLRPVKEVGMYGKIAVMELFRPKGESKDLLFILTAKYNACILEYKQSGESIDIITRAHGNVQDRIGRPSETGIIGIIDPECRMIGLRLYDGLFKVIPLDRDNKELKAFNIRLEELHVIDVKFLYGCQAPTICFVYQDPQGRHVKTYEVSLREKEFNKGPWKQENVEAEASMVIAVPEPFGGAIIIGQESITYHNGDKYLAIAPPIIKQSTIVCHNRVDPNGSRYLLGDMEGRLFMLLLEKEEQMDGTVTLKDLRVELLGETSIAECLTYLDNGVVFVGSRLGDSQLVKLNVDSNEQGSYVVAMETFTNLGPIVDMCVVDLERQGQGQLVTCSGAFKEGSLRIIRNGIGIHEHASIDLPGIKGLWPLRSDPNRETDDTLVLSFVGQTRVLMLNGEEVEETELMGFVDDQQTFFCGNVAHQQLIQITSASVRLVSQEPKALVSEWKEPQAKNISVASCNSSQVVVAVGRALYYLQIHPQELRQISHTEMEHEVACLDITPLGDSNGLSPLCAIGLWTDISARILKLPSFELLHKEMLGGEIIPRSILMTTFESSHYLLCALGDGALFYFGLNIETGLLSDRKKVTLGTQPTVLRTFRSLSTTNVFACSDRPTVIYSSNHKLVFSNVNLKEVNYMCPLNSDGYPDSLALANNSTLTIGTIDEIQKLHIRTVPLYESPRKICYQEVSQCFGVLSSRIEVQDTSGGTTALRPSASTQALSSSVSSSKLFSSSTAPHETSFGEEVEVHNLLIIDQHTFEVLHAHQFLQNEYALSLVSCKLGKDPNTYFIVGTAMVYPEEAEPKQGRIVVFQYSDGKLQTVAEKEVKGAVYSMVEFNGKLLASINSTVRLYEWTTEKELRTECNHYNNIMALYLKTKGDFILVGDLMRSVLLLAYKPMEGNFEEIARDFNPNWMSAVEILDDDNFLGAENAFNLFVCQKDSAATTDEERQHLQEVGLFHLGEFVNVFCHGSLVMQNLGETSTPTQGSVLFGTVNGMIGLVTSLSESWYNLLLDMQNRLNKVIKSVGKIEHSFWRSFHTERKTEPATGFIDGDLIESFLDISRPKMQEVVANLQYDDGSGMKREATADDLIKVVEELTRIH
Ikaros, sequence (Q13422 whole entry, species assumed): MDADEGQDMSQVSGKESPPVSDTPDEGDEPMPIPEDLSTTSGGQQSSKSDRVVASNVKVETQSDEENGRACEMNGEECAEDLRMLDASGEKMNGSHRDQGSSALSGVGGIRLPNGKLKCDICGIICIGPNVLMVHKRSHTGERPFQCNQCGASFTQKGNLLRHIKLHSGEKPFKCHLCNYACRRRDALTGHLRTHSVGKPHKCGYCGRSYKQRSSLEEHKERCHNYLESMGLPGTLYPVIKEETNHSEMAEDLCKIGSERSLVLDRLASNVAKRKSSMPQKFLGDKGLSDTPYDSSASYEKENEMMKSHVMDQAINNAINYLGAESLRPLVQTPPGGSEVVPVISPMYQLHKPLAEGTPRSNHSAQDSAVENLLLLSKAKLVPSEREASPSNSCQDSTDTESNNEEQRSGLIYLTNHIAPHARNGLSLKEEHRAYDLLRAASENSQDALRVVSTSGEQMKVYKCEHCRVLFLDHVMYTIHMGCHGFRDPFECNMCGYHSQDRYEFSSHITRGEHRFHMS
GSPT1, sequence (Q96SW2 whole entry partner, species assumed): as the sequence (Q96SW2 whole entry partner, species assumed) above
GSPT1, sequence (Q16531 whole entry partner, species assumed): as the sequence (Q16531 whole entry partner, species assumed) above
GSPT1, sequence (P15170 whole entry, species assumed): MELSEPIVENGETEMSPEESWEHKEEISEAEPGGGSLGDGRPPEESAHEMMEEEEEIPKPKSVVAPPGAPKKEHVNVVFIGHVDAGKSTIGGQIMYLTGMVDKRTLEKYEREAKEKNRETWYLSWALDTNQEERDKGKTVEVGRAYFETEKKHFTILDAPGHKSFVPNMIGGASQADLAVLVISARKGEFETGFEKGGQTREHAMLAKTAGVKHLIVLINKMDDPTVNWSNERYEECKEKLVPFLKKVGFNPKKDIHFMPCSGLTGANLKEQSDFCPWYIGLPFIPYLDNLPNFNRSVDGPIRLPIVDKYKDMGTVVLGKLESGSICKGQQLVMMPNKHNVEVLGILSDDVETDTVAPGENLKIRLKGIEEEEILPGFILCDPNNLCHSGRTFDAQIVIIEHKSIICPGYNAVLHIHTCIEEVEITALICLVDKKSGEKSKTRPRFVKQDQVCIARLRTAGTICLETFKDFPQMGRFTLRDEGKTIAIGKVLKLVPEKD
T1 sequence (P06211 whole entry): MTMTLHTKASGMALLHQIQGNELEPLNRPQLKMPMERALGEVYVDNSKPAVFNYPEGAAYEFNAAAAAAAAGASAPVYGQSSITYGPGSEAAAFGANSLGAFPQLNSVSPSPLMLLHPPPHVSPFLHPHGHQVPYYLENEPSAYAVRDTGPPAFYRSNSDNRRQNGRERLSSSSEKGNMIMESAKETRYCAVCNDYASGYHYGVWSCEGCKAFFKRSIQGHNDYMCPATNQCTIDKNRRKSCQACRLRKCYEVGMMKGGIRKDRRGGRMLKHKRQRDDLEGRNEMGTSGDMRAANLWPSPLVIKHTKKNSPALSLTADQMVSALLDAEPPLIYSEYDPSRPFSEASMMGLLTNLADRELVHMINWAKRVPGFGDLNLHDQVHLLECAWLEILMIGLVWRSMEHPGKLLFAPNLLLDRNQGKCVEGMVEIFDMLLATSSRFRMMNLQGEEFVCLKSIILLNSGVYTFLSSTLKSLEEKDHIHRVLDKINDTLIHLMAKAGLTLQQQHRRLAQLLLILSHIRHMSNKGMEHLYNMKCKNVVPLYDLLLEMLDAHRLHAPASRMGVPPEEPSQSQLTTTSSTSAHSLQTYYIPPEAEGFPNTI

## O=C1CC[C@H](N2Cc3cc(N4CCN(CC5CCN(c6ccc([C@@H]7c8ccc(O)cc8CC[C@@H]7c7ccccc7)cc6)CC5)CC4)ccc3C2=O)C(=O)N1 [Compound A, (S)-3-(5-(4-((1-(4-((1R,2S)-6-hydroxy-2-phenyl-1,2,3,4-tetrahydronaphthalen-1-yl)phenyl)piperidin-4-yl)methyl)piperazin-1-yl)-1-oxoisoindolin-2-yl)piperidine-2,6-dione]
ER [1]
  ER degradation, median decrease: 67%
ER [2]
  uterine wet weight: did not increase uterine wet weight
ERP
  binding: bound
Ikaros
  degradation of Ikaros: did not degrade
GSPT1
  degradation of GSPT1: did not degrade
hERG channel
  IC50: > 25.1 µM
hERG channel; recommended Phase 3 dose of 200 mg
  unbound Cmax margin to hERG IC50: approximately 170 ×
[3]
  tolerability: well tolerated
[4]
  increase in AUC in fed dogs: 3 fold
[5]
  solubility: 1.5 µg/mL (≈ 2.07 µM)
reticulocytes
  chromosomal damage in reticulocytes: did not induce chromosomal damage
[6]
  phototoxicity: not phototoxic
[7]; fed, read-out: geometric mean T1/2 (converted)
  half-life: ~40 h
[7]; read-out: median Tmax across cohorts
  Tmax: 6 to 8 h
[8]; 30 mg
  CL/F: 7.4 L/h
  Rac (AUCtau): 2.6
[8]; 60 mg
  CL/F: 8.2 L/h
  Rac (AUCtau): 2.6
  Tmax: 4.2 h
[8]; 100 mg
  CL/F: 11.2 L/h
  Rac (AUCtau): 2.1
[8]; 120 mg
  CL/F: 8.8 L/h
  Cmax: 799 ng/mL
  Rac (AUCtau): 2.2
[8]; 180 mg
  CL/F: 9.4 L/h
  Cmax: 1062 ng/mL
  Rac (AUCtau): 2.3
  Tmax: 5.0 h
[8]; 200 mg
  AUCtau: 15459 ng·h/mL
  CL/F: 12.9 L/h
  Cmax: 866 ng/mL
  Rac (AUCtau): 1.9
  Tmax: 5.0 h
[8]; 250 mg
  CL/F: 12.2 L/h
[8]; 360 mg
  CL/F: 13.9 L/h
  Rac (AUCtau): 2.2
[8]; 500 mg
  CL/F: 14.5 L/h
  Cmax: 1883 ng/mL
  Rac (AUCtau): 2.2
[8]; 700 mg
  AUCtau: 26572 ^e ng·h/mL
  Cmax: 1530 ^e ng/mL
  Rac (AUCtau): 1, 4 ^g
  Tmax: 6.0 g·h
ER [9]
  tumor ER levels reduced vs vehicle: ≥ 94%
